Earlier results in patent publication US12138347B2, “Nanoparticles and nanonetworks formed therefrom” (University of Houston System, priority 2018, dated 2024).

Assays:
HL60 leukemia cells = conditions: p53 null cell line
K562 leukemia cells = conditions: p53 null cell line
[1] = system: HT-29 colon carcinoma cells; conditions: p53 null cell line

**Q.** Which “potency in HL60 leukemia cells” value (HL60 leukemia cells) does the source give for `C[C@H]1CCC/C=C/[C@@H]2C[C@H](O)C[C@H]2[C@H](O)/C=C/C(=O)O1` [BFA, Brefeldin A] here?
**A.** Its value is “high potency”.

**Q.** And the “effect on efficacy of docetaxel” value (prostate cancer cells)?
**A.** The value was “enhances the efficacy”.

**Q.** What about the “potency in K562 leukemia cells” value (K562 leukemia cells) of the same compound?
**A.** The value was “high potency”.

**Q.** What about the “potency in HT-29 colon carcinoma cells” value [1] of the same compound?
**A.** Its value is “high potency”.
